Measurements from ChEMBL document CHEMBL4725408, “Antibacterial Spiropyrimidinetriones with N-Linked Azole Substituents on a Benzisoxazole Scaffold Targeting DNA Gyrase” (J Med Chem, 2020).
pIC50: −log10 of the molar value. Values after ≈ are worked out from the molar mass of the structure shown. Active and inactive are the calls of the source. The calls are words filed in the database; no cut-off is given here.

How the values were obtained:
Streptococcus pyogenes = assay: Antibacterial activity against Streptococcus pyogenes ARC838 by broth microdilution method; assay type: functional
[1] = Unbound plasma clearance in CD-1 mouse at 3 mg/kg, iv administered as 15 mins infusion by LC-MS/MS analysis; assay type: ADME, organism-based; conditions: in vivo, 0.25 h
[2] = n-octanol/phosphate buffer partition coefficient, log D of the compound at pH 7.4 measured after 1 hr by UV-LC/MS based shake flask method; assay type: physicochemical
[3] = Volume of distribution at steady state in Wistar Han rat at 3 mg/kg, iv administered as 15 mins infusion by LC-MS/MS analysis; assay type: ADME, organism-based; conditions: in vivo, read-out: Vdss
[4] = Protein binding in rat plasma assessed as unbound fraction at 10 uM measured after 16 hrs by LC-MS/MS based equilibrium dialysis method; assay type: ADME, cell-free
[5] = Protein binding in mouse plasma assessed as unbound fraction at 10 uM measured after 16 hrs by LC-MS/MS based equilibrium dialysis method; assay type: ADME, cell-free
[6] = Ratio of MIC for antibacterial activity against methicillin/quinolone-resistant Staphylococcus aureus ARC517 to protein binding in human plasma assessed as unbound fraction
Staphylococcus aureus [7] = assay: Antibacterial activity against methicillin sensitive Staphylococcus aureus ARC516 by broth microdilution method; assay type: functional
L5178Y = assay: Genotoxicity in mouse L5178Y cells using DAPI staining by microscopy based micronucleation assay; assay type: toxicity, cell-based
[8] = Plasma clearance in CD-1 mouse at 3 mg/kg, iv administered as 15 mins infusion by LC-MS/MS analysis; assay type: ADME, organism-based; conditions: in vivo, 0.25 h
[9] = Oral bioavailability in Wistar Han rat at 10 mg/kg by LC-MS/MS analysis; assay type: ADME, organism-based; conditions: in vivo
Haemophilus influenzae = assay: Antibacterial activity against Haemophilus influenzae ARC737 by broth microdilution method; assay type: functional
[10] = Half life in Wistar Han rat at 3 mg/kg, iv administered as 15 mins infusion by LC-MS/MS analysis; assay type: ADME, organism-based; conditions: in vivo
Staphylococcus aureus [11] = assay: Antibacterial activity against methicillin/quinolone-resistant Staphylococcus aureus ARC517 by broth microdilution method; assay type: functional
Staphylococcus aureus [12] = assay: Antibacterial activity against methicillin sensitive Staphylococcus aureus ARC516 infected in CD-1 mouse neutropenic thigh infection model assessed as log reduction in colony forming unit at 50 to 75 mg/kg, ip measured after 24 hrs relative to untreated control; assay type: functional; conditions: dose mg/kg 50-75
Staphylococcus aureus [13] = assay: Antibacterial activity against methicillin sensitive Staphylococcus aureus ARC516 infected in CD-1 mouse neutropenic thigh infection model assessed as log reduction in colony forming unit at 50 to 75 mg/kg, ip measured after 24 hrs relative to initial treatment control; assay type: functional; conditions: dose mg/kg 50-75
Staphylococcus aureus [14] = assay: Antibacterial activity against methicillin sensitive Staphylococcus aureus ARC516 infected in CD-1 mouse neutropenic thigh infection model assessed as reduction in colony forming unit at 10 to 25 mg/kg, ip measured after 24 hrs; assay type: functional, organism-based
Staphylococcus aureus [15] = assay: Antibacterial activity against methicillin sensitive Staphylococcus aureus ARC516 in presence of human serum by broth microdilution method; assay type: functional
Streptococcus pneumoniae = assay: Antibacterial activity against Streptococcus pneumoniae ARC548 by broth microdilution method; assay type: functional
Escherichia coli = assay: Antibacterial activity against Escherichia coli ARC523 by broth microdilution method; assay type: functional
[16] = Solubility of the compound by high throughput solubility assay; assay type: physicochemical
[17] = Protein binding in human plasma assessed as unbound fraction at 10 uM measured after 16 hrs by LC-MS/MS based equilibrium dialysis method; assay type: ADME, cell-free
[18] = Inhibition of recombinant Escherichia coli DNA gyrase AB expressed in Escherichia coli BL21 (DE3) using relaxed pJT519 DNA as substrate preincubated for 20 mins followed by 5'-BODIPY-TMR-TTCTTCTTCT addition and measured after 1 hr by fluorescence anisotropy
[19] = Oral bioavailability in CD-1 mouse at 10 mg/kg by LC-MS/MS analysis; assay type: ADME, organism-based; conditions: in vivo
[20] = Plasma clearance in Wistar Han rat at 3 mg/kg, iv administered as 15 mins infusion by LC-MS/MS analysis; assay type: ADME, organism-based; design: unit not given here; conditions: in vivo, 0.25 h
Staphylococcus aureus [21] = assay: Antibacterial activity against methicillin sensitive Staphylococcus aureus ARC516 infected in CD-1 mouse neutropenic thigh infection model assessed as log reduction in colony forming unit at 150 mg/kg, ip measured after 24 hrs relative to untreated control; assay type: functional
Staphylococcus aureus [22] = assay: Antibacterial activity against methicillin sensitive Staphylococcus aureus ARC516 infected in CD-1 mouse neutropenic thigh infection model assessed as log reduction in colony forming unit at 150 mg/kg, ip measured after 24 hrs relative to initial treatment control; assay type: functional; conditions: dose mg/kg 25-150
[23] = Volume of distribution at steady state in CD-1 mouse at 3 mg/kg, iv administered as 15 mins infusion by LC-MS/MS analysis; assay type: ADME, organism-based; conditions: in vivo, read-out: Vdss
Staphylococcus aureus [24] = assay: Antibacterial activity against methicillin sensitive Staphylococcus aureus ARC516 infected in CD-1 mouse neutropenic thigh infection model assessed as reduction in colony forming unit at 25 to 50 mg/kg, ip measured after 24 hrs; assay type: functional, organism-based
Staphylococcus aureus [25] = assay: Antibacterial activity against methicillin sensitive Staphylococcus aureus ARC516 infected in CD-1 mouse neutropenic thigh infection model assessed as log reduction in colony forming unit at 25 to 150 mg/kg, ip measured after 12 hrs relative to initial treatment control; assay type: functional; conditions: dose mg/kg 25-150
[26] = Half life in CD-1 mouse at 3 mg/kg, iv administered as 15 mins infusion by LC-MS/MS analysis; assay type: ADME, organism-based; conditions: in vivo
[27] = Unbound plasma clearance in Wistar Han rat at 3 mg/kg, iv administered as 15 mins infusion by LC-MS/MS analysis; assay type: ADME, organism-based; design: unit not given here; conditions: in vivo, 0.25 h
Staphylococcus aureus [28] = assay: Antibacterial activity against methicillin sensitive Staphylococcus aureus ARC516 infected in CD-1 mouse neutropenic thigh infection model assessed as log reduction in colony forming unit at 100 mg/kg, ip bid in presence of ABT relative to initial treatment control; assay type: functional
Staphylococcus aureus [29] = assay: Antibacterial activity against methicillin sensitive Staphylococcus aureus ARC516 infected in CD-1 mouse neutropenic thigh infection model assessed as reduction in colony forming unit at 20 mg/kg, ip bid in presence of ABT; assay type: functional, organism-based

| Structure (SMILES) | MIC (Streptococcus pyogenes) [µM] | CL free [1] [mL/h/kg] | logD at 1 h [2] | Vd [3] [L/kg] | fraction unbound at 16 h, 10 µM [4] | fraction unbound at 16 h, 10 µM [5] | Ratio [6] | MIC (Staphylococcus aureus [7]) [µM] | NOAEL (L5178Y) [µM] | CL [8] [mL/h/kg] | bioavailability [9] [%] | MIC (Haemophilus influenzae) [µM] | half-life [10] [h] | MIC (Staphylococcus aureus [11]) [µM] | MIC (Staphylococcus aureus [15]) [µM] | MIC (Streptococcus pneumoniae) [µM] | MIC (Escherichia coli) [µM] | fraction unbound at 16 h, 10 µM [17] | pIC50 [18] | bioavailability [19] [%] | other results |
| --- | --- | --- | --- | --- | --- | --- | --- | --- | --- | --- | --- | --- | --- | --- | --- | --- | --- | --- | --- | --- | --- |
| C[C@@H]1CN2c3c(cc4c(-n5cncn5)noc4c3F)CC3(C(=O)NC(=O)NC3=O)[C@H]2[C@H](C)O1 | 0.39 (≈ 0.178 µg/mL) | 10.5 | 1.7 | 1.9 | 0.1 | 0.12 | 1.4 | 0.049 (≈ 0.0223 µg/mL) | < 6 | 1.26 | 62 | 0.39 (≈ 0.178 µg/mL) | 2.41 | 0.2 (≈ 0.0911 µg/mL) | < 0.2 | 0.39 (≈ 0.178 µg/mL) | 12.5 (≈ 5.69 µg/mL) | 0.13 | 6.66 | 37 | log(activity) (Staphylococcus aureus [12]): 4; log(activity) (Staphylococcus aureus [13]): >2; Activity (Staphylococcus aureus [14]): Active; solubility [16]: 250 µM (≈ 114 µg/mL) |
| COc1ncnn1-c1noc2c(F)c3c(cc12)CC1(C(=O)NC(=O)NC1=O)[C@H]1[C@H](C)O[C@H](C)CN31 | 0.39 (≈ 0.189 µg/mL) | 3.3 | 1.7 | 1.9 | 0.13 | 0.2 | – | 0.098 (≈ 0.0476 µg/mL) | 25 | 0.66 | 48 | 0.78 (≈ 0.379 µg/mL) | 1.69 | 0.39 (≈ 0.189 µg/mL) | 0.39 | 0.39 (≈ 0.189 µg/mL) | 30 (≈ 14.6 µg/mL) | 0.14 | 6.49 | 62 | CL [20]: 13; log(activity) (Staphylococcus aureus [21]): 4.5; log(activity) (Staphylococcus aureus [22]): 2; Vd [23]: 2.4 L/kg; Activity (Staphylococcus aureus [24]): inactive; log(activity) (Staphylococcus aureus [25]): 1; half-life [26]: 2.52 h; CL free [27]: 93; solubility [16]: 900 µM (≈ 437 µg/mL) |
| C[C@@H]1CN2c3c(cc4c(N5C(=O)OC[C@@H]5C)noc4c3F)CC3(C(=O)NC(=O)NC3=O)[C@H]2[C@H](C)O1 [ZOLIFLODACIN] | – | 20.1 | 1.7 | 1.5 | 0.13 | 0.17 | 4.3 | 0.2 (≈ 0.0975 µg/mL) | > 400 | 3.42 | 31 | – | 0.79 | 0.78 (≈ 0.38 µg/mL) | 0.39 | – | 6.2 (≈ 3.02 µg/mL) | 0.18 | 6.77 | 43.5 | Vd [23]: 3 L/kg; log(activity) (Staphylococcus aureus [28]): 1.8; half-life [26]: 0.61 h; Activity (Staphylococcus aureus [29]): Active |
